System: LacZ B3Z hybridoma
Experiment: LacZ MHC Class I antigen presentation assay
Type: cell-based
Method: In one embodiment, particles prepared from these acid degradable epolymer backbones are designed to release their bioactive material payload into the cytoplasm of cells upon lysosomal destabilization. Higher loading capacity of the particles may also lead to greater antigen presentation of the encapsulated bioactive material. In the antigen presentation assay described by Sanderson, S.; Shastri, N. in Inter. Immun. 1994, 6, 369-376, the β-galactosidase activity of B3Z T cells is measured. Antigen presenting cells display the peptide having the sequence, […] (SEQ ID NO: 8), upon phagocytosis of ovalbumin. These cells are engineered to transcribe β-galactosidase when in the presence of antigen presenting cells displaying the […] peptide (SEQ ID NO: 8). β-galactosidase then liberates chlorophenol red from the chlorophenol red βgalactoside that is present in solution. Absorbance of chlorophenol red is measured by UV absorbance at 595 nm. Therefore this assay can be used as a measurement of the amount of bioactive material delivered into the cytoplasm of cells by the microgel particles of the invention by measuring the amount of liberated chlorophenol red by UV absorbance at 595 nm.
The LacZ MHC Class I antigen presentation assay, as described by the antigen Sanderson, S.; Shastri, N. in Inter. Immun. 1994, 6, 369-376, is performed with degradable polymer particles made according to Example 7 with the degradable polymers in Example 1 and 3 to test their ability to deliver proteins into APCs for Class I antigen presentation. This experiment uses the LacZ B3Z hybridoma, which is a CTL that recognizes the peptide sequence, […] (SEQ ID NO: 8), from ovalbumin, complexed with the MHC Class I molecule H-2 K^b. This hybridoma produces P-galactosidase after encountering APCs that present […] as a Class I antigen, thus allowing Class I antigen presentation to be quantified by measuring β-galactosidase activity.
A maximum absorbance of 0.25 is observed with the […] peptide (SEQ ID NO: 8), which results in 100% T-cell activation. At about 0.4 mg of particle/mL, degradable particles made as in Examples 1, should show an absorbance close to that of 0.25 at which 100% T-cell activation occurs.

Row | Substance | T-cell activation (at maximum absorbance) [%] | maximum absorbance (chlorophenol red, 595 nm) | U.V. absorbance resulting from activation (1 mg/ml of free ovalbumin) | activation of CTLs by APCs (APCs incubated with the substance)
1 | SIINFEKL | 100 | 0.25 | – | –
2 | free ovalbumin: free ovalbumin protein, comparator | – | – | 0.037 | not able to activate CTLs
